Measurements reported in PubChem BioAssay AID248 (DTP/NCI, 2004).
Values joined by “and” are separate entries in the source; they are usually repeats but may differ in a detail not shown here. Equal values may be shown once. Inconclusive results and toxic doses are left out. Cut-off read from the data, not from the text of the source: active = T/C of 150% or more; inactive = T/C below 125%.

Test system: L1210 leukemia ip in BDF1 mice, survival T/C
Assay: NCI In Vivo Anticancer Drug Screen. Data for tumor model L1210 Leukemia (intraperitoneal) in B6D2F1 (BDF1) mice
Conditions: endpoint: mean survival time, higher = longer survival
Procedure, shortened: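 Survival endpoint. Drug-treated group vs vehicle group, expressed as T divided by C. Tumor passaged by transplantation.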

[1] = dose: 100.0 mg/kg/injection, schedule: Q01DX009 (ip), vehicle: saline with Tween-80
[2] = dose: 100.0 mg/kg/injection, schedule: Q04DX003 (ip), vehicle: saline with Tween-80
[3] = dose: 200.0 mg/kg/injection, schedule: Q01DX009 (ip), vehicle: saline with Tween-80
[4] = dose: 200.0 mg/kg/injection, schedule: Q04DX003 (ip), vehicle: saline with Tween-80
[5] = dose: 400.0 mg/kg/injection, schedule: Q01DX009 (ip), vehicle: saline with Tween-80
[6] = dose: 25.0 mg/kg/injection, schedule: Q01DX009 (ip), vehicle: saline with Tween-80
[7] = dose: 50.0 mg/kg/injection, schedule: Q01DX009 (ip), vehicle: saline with Tween-80
[8] = dose: 100.0 mg/kg/injection, schedule: Q04DX003 (ip), vehicle: saline
[9] = dose: 200.0 mg/kg/injection, schedule: Q04DX003 (ip), vehicle: saline
[10] = dose: 400.0 mg/kg/injection, schedule: Q04DX003 (ip), vehicle: saline
[11] = dose: 50.0 mg/kg/injection, schedule: Q01DX001 (ip), vehicle: saline
[12] = dose: 100.0 mg/kg/injection, schedule: Q01DX001 (ip), vehicle: saline
[13] = dose: 200.0 mg/kg/injection, schedule: Q01DX001 (ip), vehicle: saline
[14] = dose: 100.0 mg/kg/injection, schedule: Q04DX002 (ip), vehicle: saline with Tween-80
[15] = dose: 200.0 mg/kg/injection, schedule: Q04DX002 (ip), vehicle: saline with Tween-80
[16] = dose: 400.0 mg/kg/injection, schedule: Q04DX002 (ip), vehicle: saline with Tween-80

Measured: T/C

COc1ccc(C(=O)NCc2cccs2)cc1
inactive: dose: 100.0 mg/kg/injection, schedule: Q04DX002 (ip), vehicle: Klucel (hydroxypropylcellulose) (HPC) 91 % of control | dose: 200.0 mg/kg/injection, schedule: Q04DX002 (ip), vehicle: Klucel (hydroxypropylcellulose) (HPC) 102 % of control | dose: 400.0 mg/kg/injection, schedule: Q04DX002 (ip), vehicle: Klucel (hydroxypropylcellulose) (HPC) 97 % of control

O=C(CC(O)(C(F)(F)Cl)C(F)(F)Cl)c1cccs1
inactive: dose: 50.0 mg/kg/injection, schedule: Q04DX003 (ip), vehicle: saline with Tween-80 101 % of control | [1] 108 % of control | [2] 101 % of control | [3] 114 % of control | [4] 98 % of control | [5] 98 % of control | dose: 400.0 mg/kg/injection, schedule: Q04DX003 (ip), vehicle: saline with Tween-80 98 % of control

C=C1c2[nH]c3ccccc3c2C2C(CC)C1CCN2C (centres undefined)
inactive: dose: 30.0 mg/kg/injection, schedule: Q01DX Z (ip), vehicle: olive oil, sesame oil, peanut oil 102 % of control | dose: 50.0 mg/kg/injection, schedule: Q01DX Z (ip), vehicle: olive oil, sesame oil, peanut oil 98 % of control

Cn1nc(N)c2ncc(C(Cl)(Cl)Cl)nc21
inactive: [6] 108 % of control | [7] 111 % of control

CCCNC1(C(=O)O)CCCc2ccccc21 (centres undefined)
inactive: dose: 100.0 mg/kg/injection, schedule: Q04DX003 (ip), vehicle: Klucel (hydroxypropylcellulose) (HPC) 100 % of control | dose: 200.0 mg/kg/injection, schedule: Q04DX003 (ip), vehicle: Klucel (hydroxypropylcellulose) (HPC) 100 % of control | dose: 400.0 mg/kg/injection, schedule: Q04DX003 (ip), vehicle: Klucel (hydroxypropylcellulose) (HPC) 102 % of control

CCOC(=O)NC(=S)Nc1ncn[nH]1
inactive: [8] 96 % of control | [9] 97 % of control | [10] 103 % of control

O=C(C=C(C(F)(F)F)C(F)(F)F)/C=C/c1ccccc1
inactive: dose: 1.0 mg/kg/injection, schedule: Q01DX009 (ip), vehicle: other 97 % of control | dose: 2.0 mg/kg/injection, schedule: Q01DX009 (ip), vehicle: other 109 % of control | dose: 2.5 mg/kg/injection, schedule: Q04DX003 (ip), vehicle: other 97 % of control | dose: 3.13 mg/kg/injection, schedule: Q01DX009 (ip), vehicle: other 102 % of control | dose: 4.0 mg/kg/injection, schedule: Q01DX009 (ip), vehicle: other 97 % of control | dose: 5.0 mg/kg/injection, schedule: Q04DX003 (ip), vehicle: other 97 % of control | dose: 10.0 mg/kg/injection, schedule: Q04DX003 (ip), vehicle: other 92 % of control | dose: 12.5 mg/kg/injection, schedule: Q04DX003 (ip), vehicle: other 88 % of control

COc1cc(C=O)ccc1OC(=O)Nc1cccc(Cl)c1Cl
inactive: [1] 90 % of control | [3] 90 % of control | [5] 92 % of control

COc1ccc(C(CCCC(=O)O)C(CC(=O)O)C(=O)O)cc1 (centres undefined)
inactive: dose: 75.0 mg/kg/injection, schedule: Q04DX003 (ip), vehicle: saline 96 % of control | dose: 150.0 mg/kg/injection, schedule: Q04DX003 (ip), vehicle: saline 103 % of control | dose: 300.0 mg/kg/injection, schedule: Q04DX003 (ip), vehicle: saline 112 % of control

O=C(Nc1ccc(F)cc1)Oc1ccc2ccccc2c1
inactive: dose: 100.0 mg/kg/injection, schedule: Q01DX001 (ip), vehicle: carboxymethylcellulose (CMC) 103 % of control | dose: 100.0 mg/kg/injection, schedule: Q01DX009 (ip), vehicle: carboxymethylcellulose (CMC) 95 % of control and 97 % of control | dose: 100.0 mg/kg/injection, schedule: Q04DX002 (ip), vehicle: carboxymethylcellulose (CMC) 92 % of control and 98 % of control | dose: 200.0 mg/kg/injection, schedule: Q01DX001 (ip), vehicle: carboxymethylcellulose (CMC) 94 % of control | dose: 200.0 mg/kg/injection, schedule: Q01DX009 (ip), vehicle: carboxymethylcellulose (CMC) 102 % of control and 90 % of control | dose: 200.0 mg/kg/injection, schedule: Q04DX002 (ip), vehicle: carboxymethylcellulose (CMC) 92 % of control and 102 % of control | dose: 400.0 mg/kg/injection, schedule: Q01DX001 (ip), vehicle: carboxymethylcellulose (CMC) 97 % of control | dose: 400.0 mg/kg/injection, schedule: Q01DX009 (ip), vehicle: carboxymethylcellulose (CMC) 94 % of control and 90 % of control | dose: 400.0 mg/kg/injection, schedule: Q04DX002 (ip), vehicle: carboxymethylcellulose (CMC) 93 % of control

O=S(=O)(O)c1ccc(-c2c3nc(c(-c4ccc(S(=O)(=O)O)cc4)c4ccc([nH]4)c(-c4ccc(S(=O)(=O)O)cc4)c4nc(c(-c5ccc(S(=O)(=O)O)cc5)c5ccc2[nH]5)C=C4)C=C3)cc1
inactive: dose: 12.5 mg/kg/injection, schedule: Q01DX009 (ip), vehicle: saline with Tween-80 90 % of control | [6] 90 % of control | [7] 98 % of control | [1] 88 % of control

O=C(N/N=C\c1cc(=O)[nH]c(=O)[nH]1)c1ccncc1
inactive: [11] 90 % of control | [12] 95 % of control | [13] 95 % of control

NCC(=O)O.[Zn+2]
inactive: dose: 100.0 mg/kg/injection, schedule: Q01DX001 (ip), vehicle: water 97 % of control | dose: 200.0 mg/kg/injection, schedule: Q01DX001 (ip), vehicle: water 96 % of control | dose: 400.0 mg/kg/injection, schedule: Q01DX001 (ip), vehicle: water 94 % of control

O=C(Nc1ccc(Cl)cc1)C(c1ccccc1)c1ccccc1
inactive: [14] 100 % of control | [15] 110 % of control | [16] 100 % of control

Cc1ccc(S(=O)(=O)Nc2ccccc2)c(CC(O)(c2ccccc2)c2ccccc2)c1
inactive: [7] 93 % of control | [1] 86 % of control | [3] 93 % of control

O=C1CCCC(c2ccccc2)C1 (centres undefined)
inactive: dose: 75.0 mg/kg/injection, schedule: Q01DX001 (ip), vehicle: other 95 % of control | dose: 150.0 mg/kg/injection, schedule: Q01DX001 (ip), vehicle: other 92 % of control | dose: 300.0 mg/kg/injection, schedule: Q01DX001 (ip), vehicle: other 95 % of control

COC(=O)/C(=C\c1cccnc1)NC(=O)c1ccccc1
inactive: [11] 100 % of control | [12] 100 % of control | [8] 97 % of control | [13] 103 % of control | [9] 95 % of control | [10] 97 % of control

Nc1[nH]c(=S)[nH]c(=S)c1N
inactive: dose: 125.0 mg/kg/injection, schedule: Q01DX Z (ip), vehicle: methylcellulose (MC) 101 % of control

Cc1cc(C(=O)C=[N+]=[N-])c(CN2C(=O)c3ccccc3C2=O)c(=O)n1C
inactive: dose: 100.0 mg/kg/injection, schedule: Q04DX003 (ip), vehicle: other 100 % of control | dose: 200.0 mg/kg/injection, schedule: Q04DX003 (ip), vehicle: other 93 % of control | dose: 400.0 mg/kg/injection, schedule: Q04DX003 (ip), vehicle: other 94 % of control

Nc1ccccc1SC1CC(=O)N(c2ccc3c(c2)OCO3)C1=O (centres undefined)
inactive: [14] 93 % of control | [15] 101 % of control | [16] 86 % of control

O=C(CCCC(=O)N/N=C/c1cccc([N+](=O)[O-])c1)N/N=C\c1cccc([N+](=O)[O-])c1
inactive: [11] 101 % of control | [12] 95 % of control | [13] 95 % of control | dose: 400.0 mg/kg/injection, schedule: Q01DX001 (ip), vehicle: saline 91 % of control

COCCOC(C)C(=O)C(O)S(=O)(=O)O (centres undefined)
inactive: dose: 500.0 mg/kg/injection, schedule: Q01DX Z (oral), vehicle: saline 86 % of control | dose: 1000.0 mg/kg/injection, schedule: Q01DX Z (oral), vehicle: saline 87 % of control

C=C(Cl)CSCCS
inactive: [2] 95 % of control | [4] 106 % of control

NC1(CSS(=O)(=O)O)CCN1 (centres undefined)
inactive: dose: 10.0 mg/kg/injection, schedule: Q04DX002 (ip), vehicle: saline 106 % of control | dose: 20.0 mg/kg/injection, schedule: Q04DX002 (ip), vehicle: saline 98 % of control | dose: 40.0 mg/kg/injection, schedule: Q04DX002 (ip), vehicle: saline 109 % of control

O=C(OC1CCCCC1)c1ccccc1-c1ccccc1C(=O)OC1CCCCC1
inactive: dose: 100.0 mg/kg/injection, schedule: Q01DX001 (ip), vehicle: other 91 % of control | dose: 200.0 mg/kg/injection, schedule: Q01DX001 (ip), vehicle: other 91 % of control | dose: 400.0 mg/kg/injection, schedule: Q01DX001 (ip), vehicle: other 86 % of control
